Test results as given in patent US20070128217A1 (priority 2003, published 2007).

Legend:
[1] = tested on: recombinant human anti-SARS-CoV antibody 03-018; type: binding; parameters: Binding of antibody 03-018 to linear peptides of the N protein of SARS-CoV Urbani / Binding of antibody 03-018 to looped/cyclic peptides of the N protein of SARS-CoV Urbani: unit not given here
[2] = tested on: rabbit serum obtained by immunizing a rabbit with the SARS-CoV strain Frankfurt 1; type: binding; parameters: Binding of a rabbit serum to linear peptides / Binding of a rabbit serum to looped peptides / Rabbit serum linear peptides / Rabbit serum looped peptides / Binding of a rabbit serum to linear peptides of protein N of SARS-CoV Urbani (Rabbit serum linear peptides) / Binding of a rabbit serum to looped/cyclic peptides of protein N of SARS-CoV Urbani (Rabbit serum looped peptides): unit not given here
[3] = tested on: control sera (pooled serum of ten healthy LUMC hospital workers; commercial negative donor pooled serum from the Dutch bloodbank); type: binding, human; parameters: Binding of Control serum LUMC to linear peptides / Binding of Control serum Blood-bank to linear peptides / Binding of Control serum LUMC to looped peptides / Binding of Control Serum Blood-Bank to Looped peptides / Binding of Control serum LUMC to linear peptides of the protein M of SARS-CoV Urbani / Binding of Control serum Blood-bank to linear peptides of the protein M of SARS-CoV Urbani / Binding of Control serum LUMC to looped peptides of the protein M of SARS-CoV Urbani / Binding of Control Serum Blood-Bank to Looped peptides of the protein M of SARS-CoV Urbani: unit not given here
[4] = tested on: antibodies in sera from SARS patients (sera 1a, 1b, 2, 6, 37, 62, London, SARS-yellow, SARS-green); type: binding, human; parameters: Binding of serum 6 to linear peptides of protein X1 of SARS-CoV Urbani / Binding of serum 37 to linear peptides of protein X1 of SARS-CoV Urbani / Binding of serum 6 to looped/cyclic peptide (PEPSCAN-ELISA) / Binding of serum 37 to looped/cyclic peptide (PEPSCAN-ELISA) / Binding of serum 37 to looped/cyclic peptides of protein X1 of SARS-CoV Urbani / Binding of serum 6 to linear peptides of protein X2 / Binding of serum 37 to linear peptides of protein X2 / Binding of serum 37 to looped/cyclic peptides of protein X2 of SARS-CoV Urbani / Binding of serum 6 to linear peptides of protein M of SARS-CoV Urbani / Binding of serum 37 to linear peptides of protein M of SARS-CoV Urbani / Binding of serum 6 to looped/cyclic peptides of protein M of SARS-CoV Urbani / Binding of serum 37 to looped/cyclic peptides of protein M of SARS-CoV Urbani / Binding of serum 6 to linear peptides of protein X3 of SARS-CoV Urbani / Binding of serum 37 to linear peptides of protein X3 of SARS-CoV Urbani / Binding of serum 37 to looped/cyclic peptides of protein X3 of SARS-CoV Urbani / Binding of serum 6 to linear peptides of protein X4 of SARS-CoV Urbani / Binding of serum 37 to linear peptides of protein X4 of SARS-CoV Urbani / Binding of serum 37 to looped/cyclic peptides of protein X4 of SARS-CoV Urbani / Binding of serum 6 to linear peptides of protein X5 of SARS-CoV Urbani / Binding of serum 37 to linear peptides of protein X5 of SARS-CoV Urbani / Binding of serum 37 to looped/cyclic peptides of protein X5 of SARS-CoV Urbani / Binding of serum 6 to linear peptides of protein N of SARS-CoV Urbani / Binding of serum 37 to linear peptides of protein N of SARS-CoV Urbani / Binding of serum 6 to linear peptide (PEPSCAN-ELISA) / Binding of serum 1a to looped/cyclic peptides of protein N of SARS-CoV Urbani / Binding of serum 1b to looped/cyclic peptides of protein N of SARS-CoV Urbani / Binding of serum 2 to looped/cyclic peptides of protein N of SARS-CoV Urbani / Binding of serum 6 to looped/cyclic peptides of protein N of SARS-CoV Urbani / Binding of serum 37 to looped/cyclic peptides of protein N of SARS-CoV Urbani / Binding of serum 62 to looped/cyclic peptides of protein N of SARS-CoV Urbani / Binding of serum London to looped/cyclic peptides of protein N of SARS-CoV Urbani / Binding of serum SARS-green to looped/cyclic peptides of protein N of SARS-CoV Urbani: unit not given here

Row | Sequence | Binding of antibody 03-018 to linear peptides of the N protein of SARS-CoV Urbani [1] | Binding of antibody 03-018 to looped/cyclic peptides of the N protein of SARS-CoV Urbani [1] | Binding of a rabbit serum to linear peptides of protein N of SARS-CoV Urbani (Rabbit serum linear peptides) [2] | Binding of a rabbit serum to looped/cyclic peptides of protein N of SARS-CoV Urbani (Rabbit serum looped peptides) [2] | Binding of Control Serum Blood-Bank to Looped peptides [3] | Binding of Control serum Blood-bank to linear peptides [3] | Binding of Control serum LUMC to linear peptides [3] | Binding of Control serum LUMC to looped peptides [3] | Binding of serum 1a to looped/cyclic peptides of protein N of SARS-CoV Urbani [4] | Binding of serum 1b to looped/cyclic peptides of protein N of SARS-CoV Urbani [4] | Binding of serum 2 to looped/cyclic peptides of protein N of SARS-CoV Urbani [4] | Binding of serum 6 to looped/cyclic peptides of protein N of SARS-CoV Urbani [4] | Binding of serum 37 to looped/cyclic peptides of protein N of SARS-CoV Urbani [4] | Binding of serum 62 to looped/cyclic peptides of protein N of SARS-CoV Urbani [4] | Binding of serum London to looped/cyclic peptides of protein N of SARS-CoV Urbani [4] | Binding of serum SARS-green to looped/cyclic peptides of protein N of SARS-CoV Urbani [4] | Binding of serum SARS-yellow to looped/cyclic peptides of protein N of SARS-CoV Urbani [4] | other results
1 | LPKGFYAEGSRGGSQ | 0.1 | 0.2 | 0.1 | 0.1 | 0.6 | 0.6 | 0.6 | 0.5 | 0.3 | 0.2 | 0.3 | 0.2 | 0.5 | 0.4 | 0.4 | 0.3 | 0.2 | Binding of serum 1a to linear peptide (PEPSCAN-ELISA) [4]: 0.2; Binding of serum 1b to linear peptide (PEPSCAN-ELISA) [4]: 0.1; Binding of serum 2 to linear peptide (PEPSCAN-ELISA) [4]: 0.2; Binding of serum 6 to linear peptide (PEPSCAN-ELISA) [4]: 0.1; Binding of serum 37 to linear peptide (PEPSCAN-ELISA) [4]: 0.6; Binding of serum 62 to linear peptide (PEPSCAN-ELISA) [4]: 0.6; Binding of serum London to linear peptide (PEPSCAN-ELISA) [4]: 0.4; Binding of serum SARS-green to linear peptide (PEPSCAN-ELISA) [4]: 0.2; Binding of serum SARS-yellow to linear peptide (PEPSCAN-ELISA) [4]: 0.5
2 | LPNNTASWFTALTQH | 0.1 | 0.3 | 0.1 | 0.6 | 0.8 | 0.7 | 0.7 | 0.7 | 0.4 | 0.3 | 0.4 | 0.3 | 0.8 | 0.7 | 0.3 | 0.7 | 0.7 | Binding of serum 1a to linear peptides of protein N of SARS-CoV Urbani [4]: 0.2; Binding of serum 1b to linear peptides of protein N of SARS-CoV Urbani [4]: 0.1; Binding of serum 2 to linear peptides of protein N of SARS-CoV Urbani [4]: 0.2; Binding of serum 6 to linear peptides of protein N of SARS-CoV Urbani [4]: 0.1; Binding of serum 37 to linear peptides of protein N of SARS-CoV Urbani [4]: 0.7; Binding of serum 62 to linear peptides of protein N of SARS-CoV Urbani [4]: 0.7; Binding of serum London to linear peptides of protein N of SARS-CoV Urbani [4]: 0.4; Binding of serum SARS-green to linear peptides of protein N of SARS-CoV Urbani [4]: 0.3; Binding of serum SARS-yellow to linear peptides of protein N of SARS-CoV Urbani [4]: 0.5
